According to US20120121591A1 (priority 2009, published 2012):
Read-outs that look alike come from different tables or passages of the source.

Key:
Assay type in all cases: cell-based
hKv1.3 = hKv1.3 (Homo sapiens, UniProt P22001); assay: cell-based; settings: Kv1.3 (IWQ) IC50 (nM, Avg)
[1] = system: IFN-g secretion from T cells in human whole blood
[2] = system: IL-2 secretion from T cells in human whole blood; settings: read-out: WB (IL-2) IC50 (nM, Avg)
[3] = read-out: WB (IFNg) IC5- (nM, Avg)
[4] = read-out: WB (IFNg) IC50 (nM, Avg)

Chain of hKv1.3 (P22001 whole entry): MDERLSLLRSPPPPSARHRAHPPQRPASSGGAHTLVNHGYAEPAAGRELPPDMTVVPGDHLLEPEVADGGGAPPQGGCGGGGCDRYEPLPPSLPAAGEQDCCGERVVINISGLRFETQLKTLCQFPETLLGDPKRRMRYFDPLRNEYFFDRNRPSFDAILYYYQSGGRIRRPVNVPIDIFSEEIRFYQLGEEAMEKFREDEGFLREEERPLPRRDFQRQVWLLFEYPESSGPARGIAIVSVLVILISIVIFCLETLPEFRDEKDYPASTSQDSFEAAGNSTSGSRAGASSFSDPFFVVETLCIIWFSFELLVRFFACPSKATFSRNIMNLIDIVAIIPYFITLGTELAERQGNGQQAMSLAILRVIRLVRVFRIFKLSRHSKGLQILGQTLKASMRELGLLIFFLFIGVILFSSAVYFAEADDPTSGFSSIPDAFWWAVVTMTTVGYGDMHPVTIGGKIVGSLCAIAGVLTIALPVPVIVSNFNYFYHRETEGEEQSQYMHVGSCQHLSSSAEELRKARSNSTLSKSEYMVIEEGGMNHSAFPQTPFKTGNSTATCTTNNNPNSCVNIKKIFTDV

Compound: CC[C@H](C)[C@@H]1NC(=O)[C@@H](NC(=O)[C@H](CO)NC(=O)[C@@H](N)CCCNC(=N)N)CSSC[C@@H](C(=O)O)NC(=O)[C@H]([C@@H](C)O)NC(=O)CNC(=O)[C@@H]2CSSC[C@@H]3NC(=O)[C@H](CCC(N)=O)NC(=O)[C@H](Cc4ccccc4)NC(=O)[C@H](C)NC(=O)[C@H]([C@@H](C)O)NC(=O)[C@H](CSSC[C@H](NC(=O)[C@H](Cc4ccccc4)NC(=O)[C@H](CO)NC(=O)[C@H](CC(C)C)NC(=O)[C@H](CCCNC(=N)N)NC(=O)[C@H](Cc4ccc(O)cc4)NC(=O)[C@H](CCCCN)NC(=O)[C@H](CCSC)NC(=O)[C@H](CO)NC(=O)[C@H](Cc4c[nH]cn4)NC(=O)[C@H](CCCCN)NC3=O)C(=O)N[C@@H](CCCNC(=N)N)C(=O)N[C@@H](CCCCN)C(=O)N[C@@H]([C@@H](C)O)C(=O)N2)NC(=O)[C@H](CCCNC(=N)N)NC(=O)[C@H](CO)NC(=O)[C@H](CCC(=O)O)NC(=O)[C@@H]2CCCN2C(=O)[C@H]([C@@H](C)CC)NC(=O)[C@H]([C@@H](C)O)NC(=O)[C@H](CC(=O)O)NC1=O [[Glu9]ShK]
- IC50 (hKv1.3): 0.128 nM
- IC50 [1, 3]: 0.056 nM
- IC50 [2]: 0.036 nM

Compound: CCCC[C@@H]1NC(=O)[C@H](CO)NC(=O)[C@H](Cc2c[nH]cn2)NC(=O)[C@H](CCCCN)NC(=O)[C@@H]2CSSC[C@@H]3NC(=O)[C@H]([C@@H](C)O)NC(=O)[C@H](CCCCN)NC(=O)[C@H](CCCNC(=N)N)NC(=O)[C@H](CSSC[C@H](NC(=O)[C@H](CCCNC(=N)N)NC(=O)[C@H](CCC(=O)O)NC(=O)[C@H](CCCCN)NC(=O)[C@@H]4CCCN4C(=O)[C@H]([C@@H](C)CC)NC(=O)[C@H]([C@@H](C)O)NC(=O)[C@H](CC(=O)O)NC(=O)[C@H]([C@@H](C)CC)NC(=O)[C@@H](NC(=O)[C@H](CO)NC(=O)[C@@H](N)CCCNC(=N)N)CSSC[C@@H](C(N)=O)NC(=O)[C@H]([C@@H](C)O)NC(=O)CNC3=O)C(=O)N[C@@H]([C@@H](C)O)C(=O)N[C@@H](C)C(=O)N[C@@H](Cc3ccccc3)C(=O)N[C@@H](CCCCN)C(=O)N2)NC(=O)[C@H](Cc2ccccc2)NC(=O)[C@H](CO)NC(=O)[C@H](CC(C)C)NC(=O)[C@H](CCCNC(=N)N)NC(=O)[C@H](Cc2ccc(O)cc2)NC(=O)[C@H](CCCCN)NC1=O [[Glu10,Lys16,Nle21]ShK-amide]
- IC50 (hKv1.3): 0.127 nM
- IC50 [1, 4]: 1.26 nM
- IC50 [2]: 0.776 nM

Compound: CC[C@H](C)[C@@H]1NC(=O)[C@@H](NC(=O)[C@H](CO)NC(=O)[C@@H](N)CCCNC(=N)N)CSSC[C@@H](C(=O)O)NC(=O)[C@H]([C@@H](C)O)NC(=O)CNC(=O)[C@@H]2CSSC[C@@H]3NC(=O)[C@H](CCC(N)=O)NC(=O)[C@H](Cc4ccccc4)NC(=O)[C@H](C)NC(=O)[C@H]([C@@H](C)O)NC(=O)[C@H](CSSC[C@H](NC(=O)[C@H](Cc4ccccc4)NC(=O)[C@H](CO)NC(=O)[C@H](CC(C)C)NC(=O)[C@H](CCCNC(=N)N)NC(=O)[C@H](Cc4ccc(O)cc4)NC(=O)[C@H](CCCCN)NC(=O)[C@H](CCSC)NC(=O)[C@H](CO)NC(=O)[C@H](Cc4c[nH]cn4)NC(=O)[C@H](CCCCN)NC3=O)C(=O)N[C@@H](CCCNC(=N)N)C(=O)N[C@@H](CCCCN)C(=O)N[C@@H]([C@@H](C)O)C(=O)N2)NC(=O)[C@H](CCCNC(=N)N)NC(=O)[C@H](CCC(=O)O)NC(=O)[C@H](CCCCN)NC(=O)[C@@H]2CCCN2C(=O)[C@H]([C@@H](C)CC)NC(=O)[C@H]([C@@H](C)O)NC(=O)[C@H](CC(=O)O)NC1=O [[Glu10]ShK]
- IC50 (hKv1.3): 0.134 nM
- IC50 [1, 3]: 0.055 nM
- IC50 [2]: 0.023 nM

Compound: CC[C@H](C)[C@@H]1NC(=O)[C@@H](NC(=O)[C@H](CO)NC(=O)[C@@H](N)CCCNC(=N)N)CSSC[C@@H](C(=O)O)NC(=O)[C@H]([C@@H](C)O)NC(=O)CNC(=O)[C@@H]2CSSC[C@@H]3NC(=O)[C@H](CCC(N)=O)NC(=O)[C@H](Cc4ccccc4)NC(=O)[C@H](C)NC(=O)[C@H]([C@@H](C)O)NC(=O)[C@H](CSSC[C@H](NC(=O)[C@H](Cc4ccccc4)NC(=O)[C@H](CO)NC(=O)[C@H](CC(C)C)NC(=O)[C@H](CCCNC(=N)N)NC(=O)[C@H](Cc4ccc(O)cc4)NC(=O)[C@H](CCCCN)NC(=O)[C@H](CCSC)NC(=O)[C@H](CO)NC(=O)[C@H](Cc4c[nH]cn4)NC(=O)[C@H](CCCCN)NC3=O)C(=O)N[C@@H](CCCNC(=N)N)C(=O)N[C@@H](CCCCN)C(=O)N[C@@H]([C@@H](C)O)C(=O)N2)NC(=O)[C@H](CCC(=O)O)NC(=O)[C@H](CO)NC(=O)[C@H](CCCCN)NC(=O)[C@@H]2CCCN2C(=O)[C@H]([C@@H](C)CC)NC(=O)[C@H]([C@@H](C)O)NC(=O)[C@H](CC(=O)O)NC1=O [[Glu11]ShK]
- IC50 (hKv1.3): 0.969 nM
- IC50 [1, 3]: 4.54 nM
- IC50 [2]: 1.32 nM

Compound: CC[C@H](C)[C@@H]1NC(=O)[C@@H](NC(=O)[C@H](CO)NC(=O)[C@@H](N)CCCNC(=N)N)CSSC[C@@H](C(=O)O)NC(=O)[C@H]([C@@H](C)O)NC(=O)CNC(=O)[C@@H]2CSSC[C@@H]3NC(=O)[C@H](CCC(N)=O)NC(=O)[C@H](Cc4ccccc4)NC(=O)[C@H](C)NC(=O)[C@H](CCC(=O)O)NC(=O)[C@H](CSSC[C@H](NC(=O)[C@H](Cc4ccccc4)NC(=O)[C@H](CO)NC(=O)[C@H](CC(C)C)NC(=O)[C@H](CCCNC(=N)N)NC(=O)[C@H](Cc4ccc(O)cc4)NC(=O)[C@H](CCCCN)NC(=O)[C@H](CCSC)NC(=O)[C@H](CO)NC(=O)[C@H](Cc4c[nH]cn4)NC(=O)[C@H](CCCCN)NC3=O)C(=O)N[C@@H](CCCNC(=N)N)C(=O)N[C@@H](CCCCN)C(=O)N[C@@H]([C@@H](C)O)C(=O)N2)NC(=O)[C@H](CCCNC(=N)N)NC(=O)[C@H](CO)NC(=O)[C@H](CCCCN)NC(=O)[C@@H]2CCCN2C(=O)[C@H]([C@@H](C)CC)NC(=O)[C@H]([C@@H](C)O)NC(=O)[C@H](CC(=O)O)NC1=O [[Glu13]ShK]
- IC50 (hKv1.3): 0.157 nM
- IC50 [1, 3]: 1.1 nM
- IC50 [2]: 0.785 nM

Compound: CC[C@H](C)[C@@H]1NC(=O)[C@@H](NC(=O)[C@H](CO)NC(=O)[C@@H](N)CCCNC(=N)N)CSSC[C@@H](C(=O)O)NC(=O)[C@H]([C@@H](C)O)NC(=O)CNC(=O)[C@@H]2CSSC[C@@H]3NC(=O)[C@H](CCC(N)=O)NC(=O)[C@H](CCC(=O)O)NC(=O)[C@H](C)NC(=O)[C@H]([C@@H](C)O)NC(=O)[C@H](CSSC[C@H](NC(=O)[C@H](Cc4ccccc4)NC(=O)[C@H](CO)NC(=O)[C@H](CC(C)C)NC(=O)[C@H](CCCNC(=N)N)NC(=O)[C@H](Cc4ccc(O)cc4)NC(=O)[C@H](CCCCN)NC(=O)[C@H](CCSC)NC(=O)[C@H](CO)NC(=O)[C@H](Cc4c[nH]cn4)NC(=O)[C@H](CCCCN)NC3=O)C(=O)N[C@@H](CCCNC(=N)N)C(=O)N[C@@H](CCCCN)C(=O)N[C@@H]([C@@H](C)O)C(=O)N2)NC(=O)[C@H](CCCNC(=N)N)NC(=O)[C@H](CO)NC(=O)[C@H](CCCCN)NC(=O)[C@@H]2CCCN2C(=O)[C@H]([C@@H](C)CC)NC(=O)[C@H]([C@@H](C)O)NC(=O)[C@H](CC(=O)O)NC1=O [[Glu15]ShK]
- IC50 (hKv1.3): 0.266 nM
- IC50 [1, 3]: 0.575 nM
- IC50 [2]: 0.312 nM

Compound: CC[C@H](C)[C@@H]1NC(=O)[C@@H](NC(=O)[C@H](CO)NC(=O)[C@@H](N)CCCNC(=N)N)CSSC[C@@H](C(=O)O)NC(=O)[C@H]([C@@H](C)O)NC(=O)CNC(=O)[C@@H]2CSSC[C@@H]3NC(=O)[C@H](CCC(=O)O)NC(=O)[C@H](Cc4ccccc4)NC(=O)[C@H](C)NC(=O)[C@H]([C@@H](C)O)NC(=O)[C@H](CSSC[C@H](NC(=O)[C@H](Cc4ccccc4)NC(=O)[C@H](CO)NC(=O)[C@H](CC(C)C)NC(=O)[C@H](CCCNC(=N)N)NC(=O)[C@H](Cc4ccc(O)cc4)NC(=O)[C@H](CCCCN)NC(=O)[C@H](CCSC)NC(=O)[C@H](CO)NC(=O)[C@H](Cc4c[nH]cn4)NC(=O)[C@H](CCCCN)NC3=O)C(=O)N[C@@H](CCCNC(=N)N)C(=O)N[C@@H](CCCCN)C(=O)N[C@@H]([C@@H](C)O)C(=O)N2)NC(=O)[C@H](CCCNC(=N)N)NC(=O)[C@H](CO)NC(=O)[C@H](CCCCN)NC(=O)[C@@H]2CCCN2C(=O)[C@H]([C@@H](C)CC)NC(=O)[C@H]([C@@H](C)O)NC(=O)[C@H](CC(=O)O)NC1=O [[Glu16]ShK]
- IC50 (hKv1.3): 0.206 nM
- IC50 [1, 3]: 0.373 nM
- IC50 [2]: 0.351 nM

Compound: CCCC[C@@H]1NC(=O)[C@H](CO)NC(=O)[C@H](Cc2c[nH]cn2)NC(=O)[C@H](CCC(=O)O)NC(=O)[C@@H]2CSSC[C@@H]3NC(=O)[C@H]([C@@H](C)O)NC(=O)[C@H](CCCNC(=N)N)NC(=O)[C@H](CCCNC(=N)N)NC(=O)[C@H](CSSC[C@H](NC(=O)[C@H](CCCNC(=N)N)NC(=O)[C@H](CO)NC(=O)[C@H](CCCCN)NC(=O)[C@@H]4CCCN4C(=O)[C@H]([C@@H](C)CC)NC(=O)[C@H]([C@@H](C)O)NC(=O)[C@H](CC(=O)O)NC(=O)[C@H]([C@@H](C)CC)NC(=O)[C@@H](NC(=O)[C@H](CO)NC(=O)[C@@H](N)CCCNC(=N)N)CSSC[C@@H](C(N)=O)NC(=O)[C@H]([C@@H](C)O)NC(=O)CNC3=O)C(=O)N[C@@H]([C@@H](C)O)C(=O)N[C@@H](C)C(=O)N[C@@H](Cc3ccccc3)C(=O)N[C@@H](CCCCN)C(=O)N2)NC(=O)[C@H](Cc2ccccc2)NC(=O)[C@H](CO)NC(=O)[C@H](CC(C)C)NC(=O)[C@H](CCCNC(=N)N)NC(=O)[C@H](Cc2ccc(O)cc2)NC(=O)[C@H](CCCCN)NC1=O [[Glu18, Lys16, Nle21,Arg30]ShK-amide]
- IC50 (hKv1.3): 0.226 nM
- IC50 [1, 4]: 0.969 nM
- IC50 [2]: 1.22 nM
